# Test results as given in patent US12466824B2, “Stable polymorphic form of 6-fluoro-9-methyl-9H-β-carboline and uses thereof” (AudioCure Pharma GmbH, priority 2019, dated 2025).
# “Also recorded” adds a separate entry of the source.
# What was measured:
# [1] = Polymorph stability in poloxamer-based formulation (XRPD); format: physicochemical; details: for conversion of polymorphic form A into polymorphic form B: XRPD
# Experimental: In a series of experiments, the polymorph stability has been analyzed. Micronized (≤20 μm) polymorphs A and B were added to phosphate buffer containing a non-ionic tenside as vehicle formulation. […]
# 2 mL of poloxamer based formulation with 12 mg/ml 6-FMC were cooled to 4° C., vortexed and transferred into a 2 mL Eppendorf vial. The cooled vial was centrifuged for 2 min with a table-centrifuge, the supernatant polymer solution was removed with a pipette and discarded. The remaining 6-FMC was resuspended and vortexed with 1.5 mL of ice cold milli-Q water and centrifuged down as described before. The supernatant water was again removed with a pipette and the washing procedure is repeated 3 times (in total 4 washings). Note: Keep the solution cool to facilitate the centrifugation process. After the last washing, the remaining white 6-FMC is cooled with liquid nitrogen and freeze dried overnight at 100 Pa at room temperature.
# After 30 hours in formulation 60% of polymorphic form A is converted into polymorphic form B (see FIG. 10). Keeping the formulation for 48 hours or longer results in 100% conversion of polymorphic form A into polymorphic form B as shown in FIG. 11.
# [2] = Melting/cooling and vacuum sublimation of polymorph powders; format: physicochemical
# Experimental: The polymorph B sample melted at ˜123° C. […] (FIG. 6B).
# [3] = Polymorph conversion under various thermal conditions (polymorph B to polymorph A), XRPD; format: physicochemical
# Experimental: 3-1: Polymorph B of 6-FMC was dissolved in n-heptane, the suspension was heated (100° C.) for 1:45 h under stirring. Then the suspension was cooled and stirred at room temperature for 15 hrs. The precipitate was filtered, washed with n-heptane and dried by air.
# 3-2: Polymorph B of 6-FMC was diluted in toluene and heated up to 95° C. and cooled down to room temperature. The precipitate was filtered, washed with toluene and dried in an air stream.
# 3-3: A suspension of polymorph B of 6-FMC was diluted in n-heptane and heated up to 110° C. It was kept for 5 hrs 18 min in a flask under reflux conditions, followed by gentle cooling down to room temperature, stirred for 16 hrs. The precipitate was filtered, washed with heptane and dried by air.
# 3-4: A suspension of polymorph B of 6-FMC was diluted in n-heptane and heated up to 108° C. until the substance was completely diluted. Seed crystals of polymorph A were added to the solution which was gentle cooled down to room temperature. The precipitate was filtered, washed with n-heptane and dried by air.
# [4] = Polymorph stability under manufacturing processes; format: physicochemical; details: drying, milling, micronization, wet granulation, spray-drying, compaction
# Text: Various dissolution/crystallization conditions have been applied to try to convert polymorph B into polymorph A. As mentioned above, only with sophisticated procedures polymorph B could be fully converted into polymorph A (Example 4). Polymorphic forms of a drug substance can undergo phase conversion when exposed to a range of manufacturing processes, such as drying, milling, micronization, wet granulation, spray-drying, and compaction. Exposure to environmental conditions such as humidity and temperature can also induce polymorph conversion. Therefore, polymorph A is unstable and thus not suited for pharmaceutical processes, while polymorph B was stable under all these conditions including drying, milling, micronization, wet granulation, spray-drying, and compaction.
# [5] = Polymorph conversion using supercritical CO2; format: physicochemical; details: 60° C., 350 bar (35 MPa), 2.5 h
# Experimental: Extraction/polymorph conversion with supercritical CO2 was performed with 500 mg of crude, off-white polymorph B in an ExtrateX Rapid Expansion of a Supercritical Solution (REES) system. The extraction vessel was heated to 60° C. with a pressure of 350 bar. The nozzle was a stainless-steel capillary 5 cm length, inner diameter 0.25 mm at 70° C. The expansion vessel was heated to 40° C. at 1-5 Mpa. Equilibration time: 2.5 h; spraying-time: 15 min.
# The cylinder of the apparatus in which the supercritical CO2 had been introduced was loaded with polymorph B (FIG. 9A) and heated to 60° C. and a pressure of 35 MPa. The time amounted to 2.5 hrs during which the API dissolved completely in the supercritical CO2.
# [6] = test system: noise induced hearing loss model (NIHL) in guinea pigs; assay: Noise induced hearing loss (NIHL) guinea pig model, intratympanic application, PTS by BERA; format: in vivo; details: single intratympanic 0.12 mg; for level of improvement of the PTS: across investigated frequencies (FIG. 13 / FIG. 14)
# Experimental: The effect of an intratympanic administration of polymorph A of 6-FMC (0.12 mg) prepared freshly (less than 24 h before use) on the Permanent Threshold Shift has been investigated in guinea pigs (FIG. 13). The Permanent Threshold Shift (PTS) is defined as the difference between the post-traumatic hearing threshold measured on day 14 and the baseline hearing threshold measured on day −3.
# Furthermore, the effect of an intratympanic administration of polymorph B of 6-FMC (0.12 mg) prepared at least 48 h before use, on the PTS in guinea pigs is presented in FIG. 14.
# General procedures: All in vivo proof of principle studies were performed in the well-established guinea pig model of NIHL. […] Hearing function was assessed by brain evoked response audiometry (BERA).
# Methods: Adult guinea pigs received an intratympanic (i.t.) injection of either 6-FMC formulated in a thermosensitive hydrogel or hydrogel alone. All procedures were performed under anesthesia. BERA was used to measure auditory brainstem responses (ABRs) on day −3 and day 14. The auditory stimuli were sinus tones (10 ms duration at 4, 8, 16 kHz) at 5 dB steps from 0-90 dB. These measurements were used to calculate the PTS. The acoustic trauma was performed on day 0 and consisted of a single continuous band (quarter-octave centered at 8 kHz) at 118 dB SPL for 30 min. Animals were treated 1 h after the end of the acoustic exposure. The round window was visualized under a surgical microscope via a small hole drilled in the bone of the bulla of the left ear. 10 μL of gel containing either 6-FMC or vehicle was injected using a Hamilton syringe and a motorized pump onto the round window membrane (RWM) before the hole was closed with dental cement.
# Formulation preparation: a non-ionic tenside based solution is prepared in advance, by dissolving an appropriate amount of the non-ionic tenside in water or in PBS buffer and allowing for an overnight mixing under refrigerated conditions. Once the non-ionic tenside is completely dissolved, osmolality and pH are adjusted if desired. Next the solution is filtered through a 500 μm sieve to remove undissolved gel particles. This concludes compounding of the vehicle. API (Active Pharmaceutical Ingredient) containing formulation is prepared by addition of micronized 6-FMC (≤50 μm) at a concentration of 12 mg/mL. For experiments presented in FIG. 13, 6-FMC formulation was applied directly after being prepared. For experiments in FIG. 14, 6-FMC formulation was prepared at least 48 h prior to animal experiments.
# [7] = day 14 vs day -3, listed as polymorphic form B
# [8] = day 14 vs day -3, listed as polymorphic form A
SMILES,"polymorph conversion in formulation ([1]; initially introduced polymorph B, after 30 h in formulation)","polymorph conversion in formulation ([1]; sample initially made from polymorph B, regular intervals over several months)",polymorph conversion in the melt (diffractometry) ([2]; depending on duration of the melting status),polymorph conversion on vacuum sublimation ([2]; vacuum sublimation at 1-2 kPa),"conversion of polymorph B into form A (XRPD) ([3]; 3-1: n-heptane, 100° C. for 1:45 h, then room temperature 15 hrs)","conversion of polymorph B into form A (XRPD) ([3]; 3-2: toluene, heated to 95° C., cooled to room temperature, not reproducible)","conversion of polymorph B into form A (XRPD) ([3]; 3-3: n-heptane, 110° C., reflux 5 hrs 18 min, cooled, stirred 16 hrs)","conversion of polymorph B into form A (XRPD) ([3]; 3-4: n-heptane, 108° C., seed crystals of polymorph A added, cooled to room temperature)",stability under manufacturing processes [4],polymorph conversion in supercritical CO2 [5],PTS at some frequencies ([6]; 4 and 8 kHz (FIG. 14)),level of improvement of the PTS ([6]; listed as polymorphic form B),"average PTS (threshold shift) in treated animals [6, 7] [dB]","average PTS reduction versus vehicle-treated controls [6, 7] [dB]","conversion of polymorphic form A into polymorphic form B ([1]; 30 hours in poloxamer based formulation (phosphate buffer, non-ionic tenside), micronized) [%]","conversion of polymorphic form A into polymorphic form B ([1]; 48 hours in poloxamer based formulation, listed as polymorphic A) [%]",level of improvement of the PTS [6],recovery of the PTS compared to vehicle treated animals ([6]; at 16 kHz),"average PTS (threshold shift) in treated animals [6, 8] [dB]","average PTS reduction versus vehicle-treated controls [6, 8] [dB]"
"Cn1c2ccc(F)cc2c2ccncc21 [polymorph B, 6-fluoro-9-methyl-9H-β-carboline]",no conversion,no polymorph conversion,up to a complete conversion,complete conversion into white crystals of polymorph A,did not reveal conversion into form A,some presence of polymorph A,unchanged polymorph B,unchanged polymorph B,stable,polymorph A is obtained; also recorded: transformation happened of polymorph B into polymorph A,0,23-39 dBs,0.6,34.1,,,,,,
"Cn1c2ccc(F)cc2c2ccncc21 [polymorph A, 6-fluoro-9-methyl-9H-β-carboline]",,,,,,,,,unstable,,,,,,60,100,10-18 dBs,10-18 dBs,14.6,7.7
